Reference: patent US20150265558A1, “TREATMENT OF ADHD” (BTG International Limited, priority 2004, published 2015)

Legend:
[1] = Plasma determination of (R)-3-hydroxybutyrate after i.p. injection; type: in vivo, Sprague-Dawley rats
Method: (§1) One hundred and seventy-one male Sprague-Dawley rats (weight range 200-250 g) housed on a standard […] were used. Animals had free access to a standard pelleted rat diet and tap water at all times. KTX 0101 (sodium (R)-3-hydroxybuytrate; 100, 300, 600 and 1000 mg/kg body weight) supplied by Sigma (H6501, Lot 111K2618) was administered by intraperitoneal injection. Control animals received the appropriate 0.9% saline vehicle via the same route. Animals were killed by CO2 asphyxiation 0 h, 0.5 h, 1.0 h or 2.0 h after dosing and a terminal blood sample was collected by cardiac puncture. Blood was taken in lithium heparinised tubes and kept on ice prior to centrifugation to yield the plasma samples for analysis.
Commercial clinical assay kits for the determination of D-β-hydroxybutyrate were obtained from Randox Laboratories (Antrim, UK). The kit quantified NADH via the activity of β-hydroxybutyrate dehydrogenase measured as an increase in OD340 nm. An alkaline pH is necessary to drive the reaction equilibrium towards the production of NADH and acetoacetate.
This spectrophotometric assay was modified for application to a 96 well microplate format. The reaction rate was then determined from the increase in OD340 nm over a 1 minute time course, after allowing a necessary period for the reaction rate to settle.

[2] = Plasma determination of acetoacetate after i.p. injection; type: in vivo, Sprague-Dawley rats; settings: 30 min after dosing
Method: as §1
The assay developed for the determination of acetoacetate was based on previously published clinical assays (Li et al, 1980; McMurray et al, 1984). A different assay buffer was prepared (0.1M Na2PO4 adjusted to pH 7.0 with HCl) in order to shift the equilibrium of the reaction to production of […] and NAD+, Other modifications included the additional use of sodium oxalate at a final assay concentration of 20 mM to inhibit lactate dehydrogenase (LDH) present in the plasma samples. […]
Acetoacetate was measured via the reduction in OD340 nm over a 1 minute period after allowing for the reaction rate to settle.

[3] = system: Fisher rats (frontal cortex, hippocampus, striatum, reticular formation); assay: Tele-Stereo-EEG: electrical power of four brain areas in freely-moving rats after single i.p. dose; type: in vivo, rat
Description: Analysis of brain field potentials (“Tele-Stereo-EEG”) has been proven to be a very sensitive tool for the characterization of drug effects on the central nervous system (Dimpfel et al., 1986). After administration of a centrally active drug, quantitative changes in the brain field potentials can be considered as a characteristic fingerprint of that particular drug. “Fingerprints” of more than 100 compounds have been obtained including 8 established drug categories, e.g. stimulants, sedatives, hallucinogenics, tranquilizers, analgesics, antidepressants, neuroleptics, and narcotics. Different dosages of the same drug cause quantitative changes in electrical power. […] Direct comparison with specific reference drugs, or by discriminant analysis with reference to an extensive fingerprint database, permits the detection of any possible similarities with established drugs. In general, “fingerprints” show prominent differences for drugs prescribed for different indications and are similar for drugs with the same indication (Dimpfel, 2003). Furthermore, the pattern of EEG changes in the rat is a useful tool in predicting possible changes in the EEG power spectrum in humans.
Adult Fisher rats (4-6 month of age and day—night converted, bodyweight approximately 400 g) were implanted with 4 bipolar concentric steel electrodes using a stereotaxic surgical procedure. According to the coordinates of Paxinos and Watson (1982), all four electrodes were placed 3 mm lateral within the left hemisphere. Anterior coordinates were 12.2, 5.7, 9.7 and 3.7 mm for frontal cortex, hippocampus, striatum and reticular formation, respectively. A baseplate carrying the electrodes and a 5-pin-plug was fixed to the skull by dental cement attached to 3 steel screws fixed into the skull. Animals were given two weeks for recovery from the surgical procedure.
EEG signals were recorded from frontal cortex, hippocampus, striatum and reticular formation and were amplified and processed as described by Dimpfel et al. (1986). After automatic artifact rejection, signals were collected in sweeps of 4 s duration and submitted to Fast Fourier transformation. The resulting electrical power spectra were divided into 6 frequency ranges: delta (0.8-4.5 Hz); theta (4.75-6.75 Hz); alpha1 (7.00-9.50 Hz); alpha2 (9.75-12.50 Hz); beta (12.75-18.50 Hz); beta2 (18.75-35.00 Hz). […] In an off-line procedure spectra were averaged to give 15 minute or longer periods for further statistical analysis.
Four doses of KTX 0101 (sodium (R)-3-hydroxybuytrate: 100, 300, 600 and 1000 mg/kg body weight) (supplied by Solvias AG, CH 4002 Basel, Switzerland, batch No: SO-1058.047.1.120) and a vehicle control (0.9% w/v saline) were administered intraperitoneally to a group of 12 animals using a crossover design with at least 3 drug holidays in between the applications. After a pre-drug period of 45 minutes for baseline recording, drug effects were observed continuously for 300 minutes. Changes of electrical power (uV2/W) are expressed as percentage of the 45 minute pre-drug values. Multivariate statistics were calculated according to Ahrens and Läuter (1974).

[4] = system: freely moving rat; settings: cited from earlier work; for effect on alpha2 frequencies: Dimpfel et al., 1987

## C[C@@H](O)CC(=O)[O-].[Na+] [KTX 0101, sodium (R)-3-hydroxybuytrate]
[1]; 100, 300, 600 and 1000 mg/kg ip
  plasma concentration of (R)-3-hydroxybutyrate: clear dose-dependent increases
[1]; 100-1000 mg/kg ip, first sample
  time of highest elevation in plasma (R)-3-hydroxybutyrate: 30 min
[1]; after injection
  time to return of plasma (R)-3-hydroxybutyrate to control values: ≤ 1 h
[2]; 600 mg/kg
  plasma concentration of acetoacetate: significantly increased
[2]; 1000 mg/kg
  plasma concentration of acetoacetate: significantly increased
[3]; 100 mg/kg i.p.
  duration of EEG effects: 1 to 2 h
  statistical significance of EEG changes: not statistically significant
[3]; 100 mg/kg i.p., all regions
  pattern of change in EEG electrical power: decrease of electrical power mainly with regard to alpha2
[3]; 300 mg/kg ip
  duration of EEG pattern of changes: 2 h
  pattern of change in EEG electrical power: decreases in alpha2 power throughout all brain regions
  statistical significance of EEG changes: only statistically significant in the reticular formation
[3]; 600 mg/kg ip, generally, except reticular formation
  duration of EEG effects: 2 h
[3]; 600 mg/kg ip, reticular formation
  duration of decreases in power in the reticular formation: persisted throughout the third hour
[3]; 600 mg/kg ip, incl. first hour in striatum and all 24 variables overall
  statistical significance of EEG changes: statistically significant
[3]; 1000 mg/kg
  duration of decreases of power: lasting into the third hour
  pattern of change in EEG electrical power: more prominent decreases of power
[3]; 1000 mg/kg, reticular formation, total experimental time
  duration of decreases of power in the reticular formation: 5 h
[3]; 1000 mg/kg, even for the 4th hour within the reticular formation
  statistical significance of EEG changes: statistically significant
[3]; 2 highest doses (600 and 1000 mg/kg)
  brain regions with significant EEG changes: significant changes were also observed in the frontal cortex, hippocampus and striatum
[3]; 24 variables, 20th to 50th min after single-dose application
  similarity of qEEG fingerprint to drug classes by discriminant analysis: close proximity to the dopaminergic psychostimulants, d-amphetamine and cocaine
[3]; 100 to 1000 mg/kg i.p.
  EEG frequencies affected: all frequencies, except for the beta2 range
[3]; after injection
  period of greatest changes in EEG patterns: 5 to 65 min
[3]; dose range of 300 to 1000 mg/kg ip
  EEG changes, summary: clear, dose- and time-dependent statistically significant changes

## CC(N)Cc1ccccc1 (stereo not drawn) [amphetamine]
[4]
  effect on alpha2 frequencies: decrease alpha2 frequencies

## Clc1cccc(Cl)c1N=C1NCCN1 [clonidine]
[4]; Dimpfel and Schober, 2001
  effect on theta activity: increase

## N[C@@H](Cc1ccc(O)c(O)c1)C(=O)O [L-DOPA]
[4]
  effect on alpha2 frequencies: decrease alpha2 frequencies

## Oc1cc2c(cc1O)C(c1ccccc1)CNCC2 (stereo not drawn) [SKF 38393]
[4]
  effect on alpha2 frequencies: decrease alpha2 frequencies
